Experimental data published in US5106871A, “Anti-ulcer agent comprising chalcone derivative as effective ingredient and novel chalcone derivative” (Tsumura & Co., priority 1986, dated 1992).
Read-outs that look alike come from different tables or passages of the source.

What was measured:
Format in all cases: in vivo, male rats of the Wister line
[1] = test system: gastric mucous membrane; experiment: 150 mM hydrochloric acid/60% ethanol-induced gastric mucous membrane damage in rats (Experimental Example 3); conditions: 150 mM HCl/60% ethanol; for Inhibition Ratio: vs control
Protocol: A suspension of a compound of formula I in a 0.5 % solution of CMC (carboxymethyl cellulose) was intraabdominally or orally administered in male rats of the Wister line (each group consisting of 10 rats) having a body weight of 180 to 200 g, which had been made to fast for 24 hours, and after 30 minutes, 1 ml of a liquid mixture of 150 mM hydrochloric acid and 60% ethanol was orally administered. After 1 hour from the administration of the liquid mixture of 150 mM hydrochloric acid and 60% ethanol, the abdominal operation was carried out, and the length of the damage on the gastric mucous membrane was measured as the mucous membrane damage coefficient and compared with the value obtained in the control group. Note, a 0.5% solution of CMC not containing a compound of formula I was intra-abdominally or orally administered in the control group. Data of the inhibition ratio calculated according to the following formula is shown in Tables 8 through 10: [formula] wherein A stands for the value obtained in the control group and B stands for the value obtained in the group in which the compound of formula I had been administered.

[2] = test system: gastric mucous membrane; experiment: 100% ethanol-induced gastric mucous membrane damage in rats (Experimental Example 1)
Protocol: After 1 hour from the administration of 100% ethanol, the abdominal operation was carried out, and the length of the damaged region on the gastric mucous membrane was measured as the mucous membrane damage coefficient and compared with the value obtained in the control group. Note, a 0.5% solution of CMC not containing a compound of formula I was intraabdominally or orally administered in the control group.

[3] = test system: gastric mucous membrane; experiment: 0.6N hydrochloric acid-induced gastric mucous membrane damage in rats (Experimental Example 2); conditions: Table 7, 100 mg/kg i.p.
Protocol: A suspension of a compound of formula I in a […] of CMC (carboxymethyl cellulose) was intraabdominally administered in male rats of the Wister line (each group consisting of 10 rats) having a body weight of 180 to 200 g, which had been made to fast for 24 hours, and after 30 minutes, 1 ml of 0.6N hydrochloric acid was orally administered. After 1 hour from the administration of 0.6N hydrochloric acid, the abdominal operation was carried out, and the length of the damage on the gastric mucous membrane was measured as the mucous membrane damage coefficient and compared with the value obtained in the control group in the control group. Note, a 0.5% solution of CMC was intraabdominally administered. Data of the inhibition ratio calculated according to the following formula is shown in Tables 5 through 7: [formula] wherein A stands for the value obtained in the control group and B stands for the value obtained in the group in which the compound of formula I had been administered.

[4] = Table 9, 30 mg/kg p.o., control 84.3
[5] = Table 8, 100 mg/kg p.o., control 119.0
[6] = Table 10, 30 mg/kg i.p., control 110.7
[7] = Rattus norvegicus, ip, 1 h, Table 4, 100 mg/kg i.p., vs control, read-out: Inhibition Ratio
[8] = Table 4, 100 mg/kg i.p., control 72.3

Row | Structure (SMILES) | Mucous Membrane Damage Coefficient [1, 4] | Inhibition Ratio ([1]; Table 9, 30 mg/kg p.o.) | Mucous Membrane Damage Coefficient [1, 5] | Inhibition Ratio ([1]; Table 8, 100 mg/kg p.o.) | inhibition in vivo at 100 mg/kg [2, 7] | Mucous Membrane Damage Coefficient [2, 8] | also measured
1 | O=C(/C=C/c1ccc(O)c(O)c1)c1ccc(O)cc1O [Specific Example 19, 2',3,4,4'-tetrahydroxychalcone] | 10.5 mm | 87.5% |  |  |  |  | 
2 | O=C(CCc1ccc(O)cc1)c1ccc(O)cc1O [Specific Example 22, 1-(2,4-dihydroxyphenyl)-3-(4-hydroxyphenyl)-1-propanone] | 57.2 mm | 32.1% | 1.4 mm | 98.8% |  |  | Mucous Membrane Damage Coefficient [1, 6]: 54.2 mm; Inhibition Ratio ([1]; Table 10, 30 mg/kg i.p.): 51.0%
3 | O=C(CCc1ccc(O)cc1)c1c(O)cc(O)cc1O [Specific Example 23, 1-(2,4,6-trihydroxyphenyl)-3-(4-hydroxyphenyl)-1-propanone] |  |  | 67.9 mm | 43.0% | 36.7% | 45.8 mm | 
4 | CC(=O)Oc1c(CC=C(C)C)c(O)cc(O)c1C(=O)CCc1ccc(O)cc1 [Specific Example 24, 1-[2-acetoxy-4,6-hydroxy-3-(3-methyl-2-butenyl)phenyl]-3-(4-hydroxyphenyl)-1-propanone] |  |  |  |  | 23% | 55.7 mm | 
5 | O=C(CCc1ccc(O)c(O)c1)c1ccc(O)cc1O [Specific Example 27, 1-(2,4-dihydroxyphenyl)-3-(3,4-dihydroxyphenyl)-1-propanone] | 1.5 mm | 98.2% |  |  |  |  | Mucous Membrane Damage Coefficient [1, 6]: 60.0 mm; Inhibition Ratio ([1]; Table 10, 30 mg/kg i.p.): 45.8%
6 | O=C(CCc1ccc(O)c(O)c1)c1c(O)cc(O)cc1O [Specific Example 28, 1-(2,4,6-trihydroxyphenyl)-3-(3,4-dihydroxyphenyl)-1-propanone] |  |  | 15.7 mm | 86.8% | 90% | 7.2 mm | 
7 | CC(C)CCc1c(O)cc(O)c(C(=O)CCc2ccc(O)cc2)c1OCC(=O)O [Specific Example 32, 1-(2-carboxymethoxy-4,6-dihydroxy-3-isopentylphenyl)-3-(4-hydroxyphenyl)-1-propanone] |  |  |  |  | 61.3% | 28.0 mm | 
8 | COc1ccc(CCC(=O)c2ccc(OC)c(CCC(C)C)c2O)cc1 [Specific Example 33, 1-(2-hydroxy-4-methoxy-3-isopentylphenyl)-3-(4-methoxyphenyl)-1-propanone] |  |  |  |  | 40.1% | 3.3 mm | 
9 | COc1ccc(CCC(=O)c2c(OC)cc(OC)c(CCC(C)C)c2OCC(=O)O)cc1 [Specific Example 35, 1-(2-carboxymethoxy-4,6-dimethoxy-3-isopentylphenyl)-3-(4-methoxyphenyl)-1-propanone] |  |  |  |  |  |  | inhibition in vivo at 35 mg/kg ([2]; Rattus norvegicus, ip, 1 h, Table 1, 35 mg/kg i.p., vs control, read-out: Inhibition Ratio): 67.2%; inhibition in vivo at 100 mg/kg ([2]; Rattus norvegicus, po, 1 h, Table 2, 100 mg/kg p.o., vs control, read-out: Inhibition Ratio): 81.2%; Mucous Membrane Damage Coefficient ([2]; Table 1, 35 mg/kg i.p., control 102.6): 33.7 mm; Mucous Membrane Damage Coefficient ([2]; Table 2, 100 mg/kg p.o., control 87.7): 16.5 mm; Mucous Membrane Damage Coefficient ([3]; control 133.8): 65.8 mm; Inhibition Ratio ([3]; vs control): 50.8%
10 | CC(C)CCc1cc(CCC(=O)c2c(O)cc(O)c(CCC(C)C)c2O)ccc1O [Specific Example 37, 1-(2,4,6-trihydroxy-3-isopentylphenyl)-3-(4-hydroxy-3-isopentylphenyl)-1-propanone] |  |  |  |  | 31.1% | 49.8 mm | 
